From US20130072470A1 (ABBVIE INC., priority 2011, published 2013)

Biological target: T1, Jak3 enzyme (aa 811-1103) (Homo sapiens, UniProt P52333)
T1 construct: Jak3 enzyme (aa 811-1103); expressed in SF9 cells as a GST fusion; GST; made in house; host or cells: SF9 insect cells
Test: In vitro Jak3 kinase activity measured by time-resolved fluorescence resonance energy transfer (trFRET)
Format: biochemical
Conditions: ATP 0.001 mM
Procedure: In Vitro Jak3 Kinase Activity Measured by Time-Resolved Fluorescence Resonance Energy Transfer (trFRET)
Varying concentrations of inhibitor were added to an assay well containing: Jak3 enzyme (aa 811-1103; expressed in SF9 cells as a GST fusion and purified by glutathione affinity chromatography; 3 nM), peptide substrate (biotin-TYR2, Sequence: Biotin-(Ahx)-AEEEYFFLFA-amide; 2 μM), MOPSO pH 6.5 (50 mM), MgCl2 (10 mM), MnCl2 (2 mM), DTT (2.5 mM), BSA (0.01% w/v), Na3VO4 (0.1 mM) and ATP (0.001 mM). After about 60 min incubation at rt, the reaction was quenched by addition of EDTA (final concentration: 100 mM) and developed by addition of revelation reagents (final approximate concentrations: 30 mM HEPES pH 7.0, 0.06% BSA, 0.006% Tween-20, 0.24 M KF, 80 ng/mL PT66K (europium labeled anti-phosphotyrosine antibody cat #61T66KLB Cisbio, Bedford, Mass.) and 0.8 μg/mL SAXL (Phycolink streptavidin-allophycocyanin acceptor, cat #PJ52S, Prozyme, San Leandro, Calif.). The developed reaction was incubated in the dark either at about 4° C., for about 14 h or for about 60 min at rt, then read via a time-resolved fluorescence detector (Rubystar, BMG) using a 337 nm laser for excitation and emission wavelength of 665 nm. Within the linear range of the assay, the observed signal at 665 nm is directly related to phosphorylated product and used to calculate the IC50 values.

T1 sequence (P52333 811-1103): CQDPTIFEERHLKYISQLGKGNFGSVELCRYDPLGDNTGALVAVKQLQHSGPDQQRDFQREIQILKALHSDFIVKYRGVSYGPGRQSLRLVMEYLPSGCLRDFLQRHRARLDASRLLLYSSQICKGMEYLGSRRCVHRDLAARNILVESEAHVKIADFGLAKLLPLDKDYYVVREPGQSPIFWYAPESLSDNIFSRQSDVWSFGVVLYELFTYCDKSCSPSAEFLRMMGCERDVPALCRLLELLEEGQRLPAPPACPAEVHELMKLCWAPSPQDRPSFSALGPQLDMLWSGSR

Row | Compound | IC50 (Table B) [µM] | IC50 [µM]
1 | CC[C@@H]1C[C@H](NC(=O)CCC2NC(=O)NC2=O)C[C@@H]1c1nnc2cnc3[nH]ccc3n12 (stereo partly drawn) [compound 28, 3-(2,5-dioxoimidazolidin-4-yl)-N-((1S,3R,4S)-3-ethyl-4-(6H-pyrrolo[2,3-e][1,2,4]triazolo[4,3-a]pyrazin-1-yl)cyclopentyl)propanamide] | 1 to 10 | –
2 | CC[C@@H]1C[C@H](NC(=O)c2coc3ccccc23)C[C@@H]1c1nnc2cnc3[nH]ccc3n12 [compound 32, N-((1S,3R,4S)-3-ethyl-4-(6H-pyrrolo[2,3-e][1,2,4]triazolo[4,3-a]pyrazin-1-yl)cyclopentyl)benzofuran-3-carboxamide] | 1 to 10 | –
3 | CC[C@@H]1CN(C(=O)NC2CCC2)C[C@@H]1c1cnc2cnc3[nH]ccc3n12 [Example #17, (3S,4R)—N-cyclobutyl-3-ethyl-4-(3H-imidazo[1,2-a]pyrrolo[2,3-e]pyrazin-8-yl)pyrrolidine-1-carboxamide] | – | > 10
4 | CC[C@@H]1C[C@H](NC(=O)c2coc3c2C(=O)CCC3)C[C@@H]1c1nnc2cnc3[nH]ccc3n12 [compound 58, N-((1S,3R,4S)-3-ethyl-4-(6H-pyrrolo[2,3-e][1,2,4]triazolo[4,3-a]pyrazin-1-yl)cyclopentyl)-4-oxo-4,5,6,7-tetrahydrobenzofuran-3-carboxamide] | 1 to 10 | –
5 | CC[C@@H]1C[C@H](NC(=O)c2ncoc2C)C[C@@H]1c1nnc2cnc3[nH]ccc3n12 [compound 42, N-((1S,3R,4S)-3-ethyl-4-(6H-pyrrolo[2,3-e][1,2,4]triazolo[4,3-a]pyrazin-1-yl)cyclopentyl)-5-methyloxazole-4-carboxamide] | 1 to 10 | –
6 | CC[C@@H]1C[C@H](NC(=O)CN(C)C(=O)c2ccco2)C[C@@H]1c1nnc2cnc3[nH]ccc3n12 [compound 27, N-(2-((1S,3R,4S)-3-ethyl-4-(6H-pyrrolo[2,3-e][1,2,4]triazolo[4,3-a]pyrazin-1-yl)cyclopentylamino)-2-oxoethyl)-N-methylfuran-2-carboxamide] | > 10 | –
7 | C[C@@H]1CN(C(=O)NCC(F)(F)F)C[C@@H]1c1cnc2cnc3[nH]ccc3n12 [Example #18, (3S,4R)-3-methyl-4-(3H-imidazo[1,2-a]pyrrolo[2,3-e]pyrazin-8-yl)-N-(2,2,2-trifluoroethyl)pyrrolidine-1-carboxamide] | – | > 10
8 | CC[C@@H]1C[C@H](NC(=O)CCC2CCC(=O)N2)C[C@@H]1c1nnc2cnc3[nH]ccc3n12 (stereo partly drawn) [compound 80, N-((1S,3R,4S)-3-ethyl-4-(6H-pyrrolo[2,3-e][1,2,4]triazolo[4,3-a]pyrazin-1-yl)cyclopentyl)-3-(5-oxopyrrolidin-2-yl)propanamide] | 1 to 10 | –
9 | CC[C@@H]1CN(C(=O)NCCF)C[C@@H]1c1cnc2cnc3[nH]ccc3n12 [Example #13, (3S,4R)-3-ethyl-N-(2-fluoroethyl)-4-(3H-imidazo[1,2-a]pyrrolo[2,3-e]pyrazin-8-yl)pyrrolidine-1-carboxamide] | – | 1 to 10
10 | CC[C@@H]1C[C@H](NC(=O)c2ccco2)C[C@@H]1c1nnc2cnc3[nH]ccc3n12 [compound 78, N-((1S,3R,4S)-3-ethyl-4-(6H-pyrrolo[2,3-e][1,2,4]triazolo[4,3-a]pyrazin-1-yl)cyclopentyl)furan-2-carboxamide] | 1 to 10 | –
11 | CCc1ocnc1C(=O)N[C@H]1C[C@@H](CC)[C@@H](c2nnc3cnc4[nH]ccc4n23)C1 [compound 74, 5-ethyl-N-((1S,3R,4S)-3-ethyl-4-(6H-pyrrolo[2,3-e][1,2,4]triazolo[4,3-a]pyrazin-1-yl)cyclopentyl)oxazole-4-carboxamide] | 1 to 10 | –
12 | CC[C@@H]1C[C@H](NC(=O)c2occc2C)C[C@@H]1c1nnc2cnc3[nH]ccc3n12 [compound 79, N-((1S,3R,4S)-3-ethyl-4-(6H-pyrrolo[2,3-e][1,2,4]triazolo[4,3-a]pyrazin-1-yl)cyclopentyl)-3-methylfuran-2-carboxamide] | 1 to 10 | –
13 | CC[C@@H]1C[C@H](NC(=O)Cc2cc(C)no2)C[C@@H]1c1nnc2cnc3[nH]ccc3n12 [compound 55, N-((1S,3R,4S)-3-ethyl-4-(6H-pyrrolo[2,3-e][1,2,4]triazolo[4,3-a]pyrazin-1-yl)cyclopentyl)-2-(3-methylisoxazol-5-yl)acetamide] | 1 to 10 | –
14 | CC[C@@H]1C[C@H](NC(=O)CCC2(C)CC2)C[C@@H]1c1nnc2cnc3[nH]ccc3n12 [compound 44, N-((1S,3R,4S)-3-ethyl-4-(6H-pyrrolo[2,3-e][1,2,4]triazolo[4,3-a]pyrazin-1-yl)cyclopentyl)-3-(1-methylcyclopropyl)propanamide] | 1 to 10 | –
15 | CC[C@@H]1C[C@H](NC(=O)/C=C/c2ccco2)C[C@@H]1c1nnc2cnc3[nH]ccc3n12 [compound 60, (E)-N-((1S,3R,4S)-3-ethyl-4-(6H-pyrrolo[2,3-e][1,2,4]triazolo[4,3-a]pyrazin-1-yl)cyclopentyl)-3-(furan-2-yl)acrylamide] | 1 to 10 | –
16 | CC[C@@H]1C[C@H](NC(=O)C2=NN=C(c3ccco3)C2)C[C@@H]1c1nnc2cnc3[nH]ccc3n12 [compound 39, N-((1S,3R,4S)-3-ethyl-4-(6H-pyrrolo[2,3-e][1,2,4]triazolo[4,3-a]pyrazin-1-yl)cyclopentyl)-5-(furan-2-yl)-4H-pyrazole-3-carboxamide] | < 1 | –
17 | CC[C@@H]1CN(C(=O)NCC(C)(F)F)C[C@@H]1c1cnc2cnc3[nH]ccc3n12 [Example #16, (3S,4R)—N-(2,2-difluoropropyl)-3-ethyl-4-(3H-imidazo[1,2-a]pyrrolo[2,3-e]pyrazin-8-yl)pyrrolidine-1-carboxamide] | – | > 10
18 | CCc1cc(C(=O)N[C@H]2C[C@@H](CC)[C@@H](c3nnc4cnc5[nH]ccc5n34)C2)on1 [compound 81, 3-ethyl-N-((1S,3R,4S)-3-ethyl-4-(6H-pyrrolo[2,3-e][1,2,4]triazolo[4,3-a]pyrazin-1-yl)cyclopentyl)isoxazole-5-carboxamide] | 1 to 10 | –
19 | CC[C@@H]1C[C@H](NC(=O)c2noc3c2CC(C)CC3)C[C@@H]1c1nnc2cnc3[nH]ccc3n12 (stereo partly drawn) [compound 29, N-((1S,3R,4S)-3-ethyl-4-(6H-pyrrolo[2,3-e][1,2,4]triazolo[4,3-a]pyrazin-1-yl)cyclopentyl)-5-methyl-4,5,6,7-tetrahydrobenzo[d]isoxazole-3-carboxamide] | 1 to 10 | –
20 | C[C@@H]1CN(C(=O)N2CCOCC2)C[C@@H]1c1cnc2cnc3[nH]ccc3n12 [Example #20, ((3R,4S)-3-(3H-imidazo[1,2-a]pyrrolo[2,3-e]pyrazin-8-yl)-4-methylpyrrolidin-1-yl)(morpholino)methanone] | – | > 10
21 | CC[C@@H]1CN(C(=O)CCC(F)(F)F)C[C@@H]1c1cnc2cnc3[nH]ccc3n12 [Example #15, 1-((3S,4R)-3-ethyl-4-(3H-imidazo[1,2-a]pyrrolo[2,3-e]pyrazin-8-yl)pyrrolidin-1-yl)-4,4,4-trifluorobutan-1-one] | – | 1 to 10
22 | CC[C@@H]1C[C@H](NC(=O)CCC2CCCCC2=O)C[C@@H]1c1nnc2cnc3[nH]ccc3n12 (stereo partly drawn) [compound 70, N-((1S,3R,4S)-3-ethyl-4-(6H-pyrrolo[2,3-e][1,2,4]triazolo[4,3-a]pyrazin-1-yl)cyclopentyl)-3-(2-oxocyclohexyl)propanamide] | > 10 | –
23 | CC[C@@H]1C[C@H](NC(=O)CCc2cc(OC)no2)C[C@@H]1c1nnc2cnc3[nH]ccc3n12 [compound 36, N-((1S,3R,4S)-3-ethyl-4-(6H-pyrrolo[2,3-e][1,2,4]triazolo[4,3-a]pyrazin-1-yl)cyclopentyl)-3-(3-methoxyisoxazol-5-yl)propanamide] | 1 to 10 | –
24 | C[C@@H]1C[C@H](NC(=O)c2cccnn2)C[C@@H]1c1cnc2cnc3[nH]ccc3n12 [Example #2, N-((1S,3S,4R)-3-(3H-imidazo[1,2-a]pyrrolo[2,3-e]pyrazin-8-yl)-4-methylcyclopentyl)pyridazine-3-carboxamide] | – | > 10
25 | CC[C@@H]1C[C@H](NC(=O)c2ccoc2C)C[C@@H]1c1nnc2cnc3[nH]ccc3n12 [compound 52, N-((1S,3R,4S)-3-ethyl-4-(6H-pyrrolo[2,3-e][1,2,4]triazolo[4,3-a]pyrazin-1-yl)cyclopentyl)-2-methylfuran-3-carboxamide] | 1 to 10 | –
26 | C[C@@H]1C[C@H](CCC#N)C[C@@H]1c1nnc2cnc3[nH]ccc3n12 [Example #9, 3-((1S,3R,4S)-3-methyl-4-(6H-pyrrolo[2,3-e][1,2,4]triazolo[4,3-a]pyrazin-1-yl)cyclopentyl)propanenitrile] | – | > 10
27 | C[C@@H]1CN(C(=O)CC2CC2)C[C@@H]1c1cnc2cnc3[nH]ccc3n12 [Example #21, 1-((3R,4S)-3-(3H-imidazo[1,2-a]pyrrolo[2,3-e]pyrazin-8-yl)-4-methylpyrrolidin-1-yl)-2-cyclopropylethanone] | – | 1 to 10
28 | CC[C@@H]1C[C@H](NC(=O)c2ocnc2C)C[C@@H]1c1nnc2cnc3[nH]ccc3n12 [compound 51, N-((1S,3R,4S)-3-ethyl-4-(6H-pyrrolo[2,3-e][1,2,4]triazolo[4,3-a]pyrazin-1-yl)cyclopentyl)-4-methyloxazole-5-carboxamide] | 1 to 10 | –
